According to PubChem BioAssay (NCI):
Several values for one entry are separate records, joined by “and”; a condition that tells them apart may be missing. Identical values can stand only once.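 Assay format: 96-well plates, 48-hour exposure. GI50 is the concentration that inhibits growth by half. TGI denotes the concentration required for complete inhibition of growth.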

How the values were obtained:
Experiment in all cases: inhibition of tumour cell growth, NCI panel, 48 h
[1] = system: A549 NSCLC
[2] = system: DU-145 prostate
[3] = system: HT29 colon
[4] = system: MCF7 breast
[5] = system: NCI-H522 lung
[6] = system: SF-539 CNS
[7] = system: SK-OV-3 ovarian
[8] = system: SW-620 colon
[9] = system: NCI-H23 lung
[10] = system: UACC-62 melanoma

SMILES	GI50 [1]	TGI [1]	GI50 [2]	TGI [2]	GI50 [3]	TGI [3]	GI50 [4]	TGI [4]	GI50 [5]	TGI [5]	GI50 [6]	TGI [6]	GI50 [7]	TGI [7]	GI50 [8]	TGI [8]	TGI [9]	TGI [10]	GI50 [9]	GI50 [10]
Nc1ccccc1SC(CC(=O)c1ccccc1)c1c(Cl)cccc1Cl (stereo not drawn)	21.8 µM	58.1 µM	5.8 µM	18.3 µM	2.29 µM	5.03 µM	1.25 µM	13.1 µM	3.86 µM	12.6 µM	6.17 µM	20.5 µM	12.1 µM	28.8 µM	2.28 µM	5.21 µM	–	–	–	–
O=[N+]([O-])C(=C1c2ccccc2-c2ccccc21)[N+](=O)[O-]	–	> 100 µM	–	–	–	> 100 µM	–	–	–	> 100 µM	–	> 100 µM	–	–	–	> 100 µM	> 10 µM	> 100 µM	–	–
N/N=C1\C(=O)N(c2ccc(Cl)c(Cl)c2)C(=O)C1C(=O)Nc1ccc(Cl)c(Cl)c1 (stereo not drawn)	–	> 100 µM	–	–	–	> 100 µM	–	–	–	> 100 µM	–	> 100 µM	–	–	–	> 100 µM	> 100 µM	> 100 µM	–	–
Cc1c(C(=O)Nc2ccc(Oc3ccnc4cc(OCC(C)(C)O)ccc34)c(F)c2)c(=O)n(-c2ccccc2)n1C	–	–	–	–	2.29 µM	> 100 µM	–	–	8.43 µM	> 100 µM	1.46 µM	> 100 µM	6.46 µM	> 100 µM	–	–	–	–	–	–
NNC(=O)C(=O)N/N=C1\CCCC1C(=O)CCC(=O)Nc1cccc(Cl)c1 (stereo not drawn)	–	> 100 µM	–	–	–	> 100 µM	–	–	–	–	–	–	–	–	–	> 100 µM	> 100 µM	> 100 µM	–	–
Nc1ncnc2c1ncn2C1(CO)OC(CO)C(O)C1O (stereo not drawn)	–	> 100 µM	–	–	–	> 100 µM	–	–	–	> 100 µM	–	–	–	> 100 µM	–	> 100 µM	> 100 µM	–	–	–
O=C1OC(=O)c2c1cc1cc3c(cc1c2-c1ccc2c(c1)OCO2)OCO3	–	> 100 µM	–	> 100 µM	–	> 100 µM	–	> 100 µM	–	> 100 µM	–	> 100 µM	–	–	–	> 100 µM	> 100 µM	> 100 µM	–	–
O=C1c2ccccc2-n2c1nc1ccc([N+](=O)[O-])cc1c2=O	–	> 100 µM	–	> 100 µM	–	–	–	24.4 µM	–	> 100 µM	–	> 100 µM	–	> 100 µM	–	> 100 µM	> 100 µM	> 100 µM	–	–
Cc1ccc(C)c(NC(=O)C(=O)C(C2C(C)CC(=O)C2CC(=O)O)[N+](=O)[O-])c1 (stereo not drawn)	–	> 100 µM	–	–	–	> 100 µM	–	–	–	–	–	> 100 µM	–	> 100 µM	–	> 100 µM	> 100 µM	> 100 µM	–	–
CCCOC(=O)C1C(c2ccc(OC)cc2)NC(c2ccc(OC)cc2)C(C(=O)OCCC)S1(=O)=O (stereo not drawn)	> 100 µM	> 100 µM	–	–	> 100 µM	> 100 µM	–	–	> 100 µM	> 100 µM	> 100 µM	> 100 µM	–	> 100 µM	> 100 µM	> 100 µM	> 100 µM	> 100 µM	> 100 µM	> 100 µM
Oc1ccc(Br)cc1C=Nc1ccc(Oc2ccc(N=Cc3cc(Br)ccc3O)cc2)cc1	–	> 19.6 µM	–	–	–	> 19.6 µM	–	–	–	> 19.6 µM	–	> 19.6 µM	–	> 19.6 µM	–	> 19.6 µM	> 19.6 µM	> 19.6 µM	–	–
COc1ccc(-c2cc(-c3ccco3)c(C#N)c(=O)n2C2OC(COC(C)=O)C(OC(C)=O)C(OC(C)=O)C2OC(C)=O)cc1 (stereo not drawn)	–	> 100 µM	–	–	> 100 µM and 28.6 µM	> 100 µM	–	–	42.8 µM and 11 µM	> 100 µM and 60.4 µM	> 100 µM and 11.7 µM	> 100 µM and 23.9 µM	> 100 µM and 28.1 µM	> 100 µM and 64.5 µM	–	> 100 µM	> 100 µM	> 100 µM	–	> 100 µM and 17.2 µM
CCOC(=O)C(c1ccsc1)P(=O)(OCC)OCC (stereo not drawn)	–	55.8 µM	–	–	–	39.7 µM	–	–	–	16.9 µM	–	30.2 µM	–	77.2 µM	–	30.8 µM	36.7 µM	23.9 µM	–	–
CC(C)CC1CC2C(=O)N(c3ccccc3)C(=O)C2c2[nH]c3ccccc3c21 (stereo not drawn)	–	> 53.8 µM	–	–	–	> 100 µM	–	–	–	> 100 µM	–	99.4 µM	–	43.6 µM	–	> 100 µM	> 80.8 µM	> 31.6 µM	–	–
C=CCN=C1NC(=O)C(CC(=O)Nc2ccc([N+](=O)[O-])cc2[N+](=O)[O-])S1 (stereo not drawn)	–	> 100 µM	–	–	–	> 100 µM	–	–	–	> 100 µM	–	> 100 µM	–	> 100 µM	–	> 100 µM	> 100 µM	> 100 µM	–	–
COC(=O)N1C=CC2=C(C)C3Nc4ccccc4C3C(C)=C2C1 (stereo not drawn)	–	16.8 µM	–	–	–	> 100 µM	–	–	–	10.7 µM	–	17.2 µM	–	8.71 µM	–	21.9 µM	> 100 µM	6.89 µM	–	–
CC1(C)CCOC(Sc2ccccc2)C1 (stereo not drawn)	–	> 100 µM	–	–	–	–	–	–	–	> 100 µM	–	–	–	> 100 µM	–	> 100 µM	> 100 µM	> 100 µM	–	–
CCCCCCCCCCCCNC(=S)OCCCC	–	> 100 µM	–	–	–	> 100 µM	–	–	–	> 100 µM	–	> 100 µM	–	> 100 µM	–	> 100 µM	> 100 µM	> 100 µM	–	–
CC1Nc2ccccc2NC1C=C(C#N)C#N (stereo not drawn)	–	54.1 µM	–	–	–	36.9 µM	–	–	–	25.3 µM	–	26 µM	–	52.6 µM	–	25.1 µM	34.6 µM	32.6 µM	–	–
CN1C=C(C(N)=O)Cc2ccsc21	–	> 100 µM	–	–	–	> 100 µM	–	–	–	> 100 µM	–	> 100 µM	–	> 100 µM	–	> 100 µM	> 100 µM	> 100 µM	–	–
O=C1c2ccccc2C(=O)N1CCN(CCN1C(=O)c2ccccc2C1=O)Cc1ccccc1	–	> 100 µM	–	–	–	–	–	–	–	> 100 µM	–	–	–	> 100 µM	–	> 100 µM	> 100 µM	> 100 µM	–	–
O=C1CC2=CCCC2O1 (stereo not drawn)	–	> 100 µM	–	–	–	> 100 µM	–	–	–	> 100 µM	–	> 100 µM	–	> 100 µM	–	> 100 µM	> 100 µM	> 100 µM	–	–
O=c1oc2cc(O)ccc2cc1-c1nc2ccccc2o1	–	> 100 µM	–	> 100 µM	–	> 100 µM	–	> 100 µM	–	56.1 µM	–	> 100 µM	–	–	–	> 100 µM	> 100 µM	> 100 µM	–	–
NNC(=S)N/N=C(\c1nc2ccc(Cl)cc2[nH]c1=O)C(O)c1cccc([N+](=O)[O-])c1 (stereo not drawn)	–	> 100 µM	–	–	–	> 50.9 µM	–	–	–	> 100 µM	–	> 47.5 µM	–	> 100 µM	–	41.9 µM	> 61.9 µM	> 100 µM	–	–
